Common to all, as to type: in vivo
Assay [1] concerns Triticum aestivium (TRZAW). Briefly: Pre-emergence herbicidal activity, TRZAW. Also noted: key: 5=total damage to plant; 0=no damage to plant. Particulars: 1000 g/ha, sprayed pre-emergence, evaluated after 13 days, damage score 0-5. As for the experimental part:
(§1) Seeds of a variety of test species were sown in standard soil in pots: Triticum aestivium (TRZAW), Avena fatua (AVEFA), Alopecurus myosuroides (ALOMY), Echinochloa crus-galli (ECHCG), Lolium perenne (LOLPE), and Setaria faberi (SETFA). After cultivation for one day (pre-emergence) under controlled conditions in a glasshouse (at 24/16° C., day/night; 14 hours light; 65% humidity), the plants were sprayed with an aqueous spray solution derived from the formulation of the technical active ingredient in acetone/water (50:50) solution containing 0.5% Tween 20 (polyoxyethelyene sorbitan monolaurate, CAS RN 9005-64-5). The test plants were then grown in a glasshouse under controlled conditions (at 24/16° C., day/night; 14 hours light; 65% humidity) and watered twice daily. After 13 days, the test was evaluated (5=total damage to plant; 0=no damage to plant).

Assay [2] concerns Avena fatua (AVEFA). Briefly: Pre-emergence herbicidal activity, AVEFA. Also noted: key: 5=total damage to plant; 0=no damage to plant. Particulars: 1000 g/ha, sprayed pre-emergence, evaluated after 13 days, damage score 0-5. The method, then: as §1
For assay [3], the system named is Lolium perenne (LOLPE). Briefly: Post-emergence herbicidal activity, LOLPE. Particulars: 1000 g/ha, sprayed post-emergence (8 days cultivation), evaluated after 13 days, damage score 0-5. As for the experimental part:
(§2) Seeds of a variety of test species were sown in standard soil in pots: Triticum aestivium (TRZAW), Avena fatua (AVEFA), Alopecurus myosuroides (ALOMY), Echinochloa crus-galli (ECHCG), Lolium perenne (LOLPE), and Setaria faberi (SETFA). After 8 days cultivation (post-emergence) under controlled conditions in a glasshouse (at 24/16° C., day/night; 14 hours light; 65% humidity), the plants were sprayed with an aqueous spray solution derived from the formulation of the technical active ingredient in acetone/water (50:50) solution containing 0.5% Tween 20 (polyoxyethelyene sorbitan monolaurate, CAS RN 9005-64-5). The test plants were then grown in a glasshouse under controlled conditions (at 24/16° C., day/night; 14 hours light; 65% humidity) and watered twice daily. After 13 days, the test was evaluated (5=total damage to plant; 0=no damage to plant).

Assay [4] deals with Echinochloa crus-galli (ECHCG). Briefly: Pre-emergence herbicidal activity, ECHCG. Particulars: 1000 g/ha, sprayed pre-emergence, evaluated after 13 days, damage score 0-5. As for the experimental part: as §1
Assay [5] has as its system Lolium perenne (LOLPE). Briefly: Pre-emergence herbicidal activity, LOLPE. Also noted: key: 5=total damage to plant; 0=no damage to plant. Particulars: 1000 g/ha, sprayed pre-emergence, evaluated after 13 days, damage score 0-5. As for the experimental part: as §1
The test system of assay [6] is Alopecurus myosuroides (ALOMY). The assay can be described thus: Post-emergence herbicidal activity, ALOMY. Particulars: 1000 g/ha, sprayed post-emergence (8 days cultivation), evaluated after 13 days, damage score 0-5. The method, then:
as §2

The subject of assay [7] is Echinochloa crus-galli (ECHCG). Briefly: Post-emergence herbicidal activity, ECHCG. Particulars: 1000 g/ha, sprayed post-emergence (8 days cultivation), evaluated after 13 days, damage score 0-5. As for the experimental part: as §2
In assay [8] the test system is Alopecurus myosuroides (ALOMY). Briefly: Pre-emergence herbicidal activity, ALOMY. Also noted: key: 5=total damage to plant; 0=no damage to plant. The following applies: 1000 g/ha, sprayed pre-emergence, evaluated after 13 days, damage score 0-5. As for the experimental part:
as §1

In assay [9] the test system is Setaria faberi (SETFA). The assay can be described thus: Post-emergence herbicidal activity, SETFA. Also noted: key: 5=total damage to plant; 0=no damage to plant. The following applies: 1000 g/ha, sprayed post-emergence (8 days cultivation), evaluated after 13 days, damage score 0-5. As for the experimental part: as §2
The test system of assay [10] is Setaria faberi (SETFA). Briefly: Pre-emergence herbicidal activity, SETFA. Also noted: key: 5=total damage to plant; 0=no damage to plant. The following applies: 1000 g/ha, sprayed pre-emergence, evaluated after 13 days, damage score 0-5. As for the experimental part: as §1
The test system of assay [11] is Avena fatua (AVEFA). Briefly: Post-emergence herbicidal activity, AVEFA. Particulars: 1000 g/ha, sprayed post-emergence (8 days cultivation), evaluated after 13 days, damage score 0-5. The method, then: as §2
Assay [12] deals with Triticum aestivium (TRZAW). Briefly: Post-emergence herbicidal activity, TRZAW. The following applies: 1000 g/ha, sprayed post-emergence (8 days cultivation), evaluated after 13 days, damage score 0-5. As for the experimental part: as §2

Consider `CC(=O)N(C(C)=O)c1ncc(-c2cncnc2)nc1C(F)(F)F` [Compound I8], for which the “Control of weed species after pre-emergence application: TRAZW” value in assay [1] was 0. Further, the “Control of weed species after pre-emergence application: AVEFA” value in the assay on Avena fatua (AVEFA) [2] amounted to 0. Also, the “Control of weed species after post-emergence application: LOLPE” value in the assay with Lolium perenne (LOLPE) [3] is recorded as 1. For the same molecule, the “Control of weed species after pre-emergence application: ECHCG” value in assay [4] amounted to 2. Besides, the “Control of weed species after pre-emergence application: LOLPE” value in the assay on Lolium perenne (LOLPE) [5] stood at 1. Besides, in assay [6], the “Control of weed species after post-emergence application: ALOMY” value is reported as 1. Moreover, the “Control of weed species after post-emergence application: ECHCG” value in [7] was determined as 4. Also, in assay [8], the “Control of weed species after pre-emergence application: ALOMY” value worked out at 0. Moreover, the “Control of weed species after post-emergence application: SETFA” value with Setaria faberi (SETFA) [9] turned out to be 5. Further, the “Control of weed species after pre-emergence application: SETFA” value in the assay with Setaria faberi (SETFA) [10] was found to be 4. Also, the “Control of weed species after post-emergence application: AVEFA” value in the assay on Avena fatua (AVEFA) [11] turned out to be 2. Moreover, in assay [12], the “Control of weed species after post-emergence application: TRAZW” value is 1.

Turning to `CC(=O)N(C)c1ncc(-c2cncc(F)c2)nc1C` [Compound I6], the “Control of weed species after pre-emergence application: TRAZW” value in assay [1] is on record as 0. Also, the “Control of weed species after pre-emergence application: AVEFA” value in the assay with Avena fatua (AVEFA) [2] came to 1. Moreover, the “Control of weed species after post-emergence application: LOLPE” value with Lolium perenne (LOLPE) [3] stood at 2. For the same molecule, the “Control of weed species after pre-emergence application: ECHCG” value in [4] was found to be 3. Besides, the “Control of weed species after pre-emergence application: LOLPE” value in the assay on Lolium perenne (LOLPE) [5] came out at 0. In assay [6], the “Control of weed species after post-emergence application: ALOMY” value was 1. The “Control of weed species after post-emergence application: ECHCG” value in assay [7] was found to be 4. For the same molecule, in [8], the “Control of weed species after pre-emergence application: ALOMY” value turned out to be 0. In the assay on Setaria faberi (SETFA) [9], the “Control of weed species after post-emergence application: SETFA” value was found to be 5. Also, the “Control of weed species after pre-emergence application: SETFA” value in the assay on Setaria faberi (SETFA) [10] was 5. Also, in the assay on Avena fatua (AVEFA) [11], the “Control of weed species after post-emergence application: AVEFA” value turned out to be 3. For the same molecule, the “Control of weed species after post-emergence application: TRAZW” value in assay [12] is reported as 1.

(Values after patent publication US11678665B2, “Pyrazine-4-carbamate or -urea derivatives as herbicides” (Syngenta Participations AG, priority 2017, dated 2023).)
